{"source": "patent US20200282009A1", "about": "“METHODS OF TREATING DISEASES ASSOCIATED WITH VASCULAR SMOOTH MUSCLE CELL PROLIFERATION” (BioLineRx Ltd., priority 2017, published 2020)", "format_in_all_cases": "cell-based, human", "key": {"[1]": {"test_system": "SK-N-BE(2)-CXCR4 cells", "assay": "Cell survival assay (PI staining, FACS)", "details": "SK-N-BE(2)-CXCR4 compared to native cell line; 0-10 μM, 24 hours", "experimental": "A total of 1×10^5 cells/mL were cultured in 24-well plates with […] RPMI 1640 medium supplemented with 10% FCS. 24 hours later, the medium was changed to RPMI 1640 supplemented with either 1% FCS, with BL-8040 or AMD3100 or ABT199. Then 24 hours later, the cells were harvested, washed, and stained with PI (Sigma). The number of live cells was counted and analyzed using FACS analysis.\nIn order to stably overexpress CXCR4, SK-N-BE(2) cells were transduced with the lentiviral bicistronic vector harboring a CXCR4 expression cassette. This was done using a three-plasmid system: pHR′-CMVCXCR4-IRES-GFP-WPRE; envelope coding plasmid VSV-G and a packaging construct CMVDR8.91 according to previously published protocol (23). For transduction of SK-N-BE(2) cells, 1 ml of viral supernatant was used, which is equivalent to an m.o.i. of ˜9."}, "[2]": {"test_system": "SK-N-BE(2) cells", "assay": "Soft agar colony assay", "details": "CXCL12 100 ng/ml, 14 days", "experimental": "An agar base layer was prepared as follows: 45 mL RPMI plus 12% FCS was mixed with 15 mL RPMI 32 plus 12% FCS and 15 mL 2.5% agar in double-distilled water. The tumor cells were suspended in RPMI plus 10% FCS. Cell suspension was mixed in a ratio of 1:3 with the agar base solution. This mixture was then plated on top of a preformed solid agar base. CXCL12 (100 ng/mL) or BL-8040 (20 μM) or anti-CXCR4 (1 μg/ml) were added to the mixture. Fourteen days later, the number of colonies was counted in 10 different fields."}, "[3]": {"test_system": "SK-N-BE(2) cells", "assay": "Cell proliferation assay with CXCL12", "experimental": "(§1) Cells were seeded at 2×10^4 cells/1 ml per well into a 24-well plate in medium supplemented with 0.1% FCS with or without various concentrations of CXCL12 (PeproTech EC). On days 2, 4 and 7, cells were harvested, stained with propidium iodide (PI, Sigma), and the number of viable cells was determined using FACS analysis."}, "[4]": {"test_system": "Shy-SY5Y cells", "assay": "Cell proliferation assay with CXCL12", "details": "CXCL12 500 ng/ml", "experimental": "as §1"}, "[5]": {"test_system": "BCL-2 and CCND1 in SK-N-BE(2) cells", "assay": "qPCR of target genes after miR transfection", "experimental": "cDNA was synthesized from 0.5-1 μg total RNA using the Quanta Biosciences qScript™ cDNA Synthesis Kit (95047-100) for mRNA analysis, and using the qScript™ microRNA cDNA Synthesis Kit (95107-100) for miRNAs analysis. Quantiative PCR (qPCR) of miRNAs and mRNA was performed using the CFX384, C1000 touch thermal cycler (Bio-Rad) and a SYBR Green PCR Kit: Quanta Cat. #84018 and #84071, respectively. The fold expression and statistical significance were calculated using the 2-ΔΔ Ct method. All experiments were performed in triplicate.\nTransfections were performed using Lipofectamine 2000 transfection reagent (Invitrogen) according to the manufacturer's protocol. Plasmids were purchased from Dharmacon. MiR-15a: miRIDIAN microRNA hsa-miR-15a-5p mimic. MiR-16-1: miRIDIAN microRNA hsa-miR-16-5p mimic. Negative control miR: miRIDIAN microRNA inhibitor negative control. AntagomiR-15a: miRIDIAN microRNA hsa-miR-15a-5p hairpin inhibitor. AntagomiR-16-1: miRIDIAN microRNA hsa-miR-16-5p hairpin inhibitor. AntagomiR negative control: miRIDIAN microRNA hairpin inhibitor negative control 1. All miRNA-mimics and antagomiRs were transfected at 50 nM or 100 nM. To determine the efficiency of transfection, at 48 hours post-transfection, the cells were analyzed for RNA."}}, "data": [{"compound": "CC1(C)CCC(CN2CCN(c3ccc(C(=O)NS(=O)(=O)c4ccc(NCC5CCOCC5)c([N+](=O)[O-])c4)c(Oc4cnc5[nH]ccc5c4)c3)CC2)=C(c2ccc(Cl)cc2)C1", "note": "[ABT-199, reference compound]", "values": [{"measurement": "resistance to the BCL-2 inhibitor (viability)", "setting": "[1]", "result": "high resistance"}]}, {"compound": "CXCL12: the ligand of CXCR4 (PeproTech EC)", "values": [{"measurement": "colony formation with CXCL12", "setting": "[2]", "result": "high colony formation ability"}, {"measurement": "proliferation with CXCL12", "setting": "[3]", "result": "no response"}, {"measurement": "proliferation with CXCL12", "setting": "[4]", "result": "increased proliferation"}]}, {"compound": "miR-16-1: miRIDIAN microRNA hsa-miR-16-5p mimic (guide TAGCAGCACGTAAATATTGGCG; mimic duplex; passenger strand missing)", "values": [{"measurement": "level of both target genes (BCL-2 and CCND1) after transfection", "setting": "[5]", "result": "reduction"}]}]}
